In US20020052295A1, “Diacyl derivatives of propylene diamine having herbicidal activity” (priority 1999, published 2002):

How the values were obtained:
ABUTH [1] = assay: Pre-emergence herbicidal activity on ABUTH (velvetleaf); format: in vivo, Abutilon theophrasti; conditions: lowest tested rate giving 80% or greater inhibition, approx. 14 days after planting and treating, greenhouse
Method in brief: (§1)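 GR80 values come from percent inhibition relative to untreated plants, rated roughly 14 days after planting and treating, with rates up to typically 1000 g/ha. Compound was sprayed onto the soil over freshly covered seeds as a dilution in 50:50 acetone/water; pots kept in greenhouse at 30/21° C. day/night after 0.64 cm overhead watering.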

SOLNI [2] = assay: Pre-emergence herbicidal activity on SOLNI (black nightshade); format: in vivo, Solanum nigrum; conditions: lowest tested rate giving 80% or greater inhibition, approx. 14 days after planting and treating, greenhouse
Method in brief: as §1

SORHA [3] = assay: Pre-emergence herbicidal activity on SORHA (johnsongrass, seedling); format: in vivo, Sorghum halepense; conditions: lowest tested rate giving 80% or greater inhibition, approx. 14 days after planting and treating, greenhouse
Method in brief: as §1

SETFA [4] = assay: Pre-emergence herbicidal activity on SETFA (giant foxtail); format: in vivo, Setaria faberi; conditions: lowest tested rate giving 80% or greater inhibition, approx. 14 days after planting and treating, greenhouse
Method in brief: as §1

BRAPP [5] = assay: Pre-emergence herbicidal activity on BRAPP (broadleaf signalgrass); format: in vivo, Brachiaria platyphylla; conditions: lowest tested rate giving 80% or greater inhibition, approx. 14 days after planting and treating, greenhouse
Method in brief: as §1

ABUTH [6] = assay: Post-emergence herbicidal activity on ABUTH (velvetleaf); format: in vivo, Abutilon theophrasti; conditions: post-emergence spray; lowest tested rate with 80% or greater inhibition; about 14 days after treatment
From the text: (§2) All such uses, and the biological activity enabling such uses, are embraced by the term “herbicidal” herein. Tables 15 and 16 summarize results of tests conducted as described below to determine the pre-emergence herbicidal activity, in the form of a GR80 value, of illustrative compounds of this invention. […] Where herbicidal activity was evident but 80% inhibition was not achieved at the highest rate tested (typically 1000 g/ha), an asterisk (*) is shown in the following tables. Herbicidal activity evident in the form of symptoms of phytotoxicity, in the absence of at least 80% inhibition at any rate, is indicated in the tables by “phyto”. A blank cell in the following tables indicates no herbicidal or phytotoxic response at any rate tested.
(§3) In another set of tests, the post-emergence activity of compounds of this invention was evaluated on the cool season species listed above. The following procedure was used.
(§4) A pre-prepared topsoil mixture (described above) was placed in a pot and compacted to a depth of 1.0 to 1.25 cm from the top of the pot. Seeds of each of several monocotyledonous and dicotyledonous annual plant species were placed on top of the soil The seeds were covered with a mixture of 50% topsoil and 50% Rediearth™ in sufficient quantity to level-fill the pots. The pots were then placed on a greenhouse bench and subirrigated as needed until plants growing from the seeds had emerged and reached a suitable growth stage for post-emergence treatment, typically 9 to 14 days after planting.
(§5) A known amount of each test compound dissolved or suspended in an appropriate organic solvent was diluted with a 50:50 mix of acetone and water and applied to the plants by spraying with a standard spray nozzle in a spray volume of 3,100 l/ha at a spray pressure of […] (30 psig). Control plants were not sprayed.
(§6) After treatment the plants were placed in a greenhouse with a 30/21° C. day/night temperature regime and were subsequently watered as needed for growth. Approximately 14 days after treatment, the plants were observed and herbicidal efficacy recorded as percent inhibition by comparison with control plants.

SOLNI [7] = assay: Post-emergence herbicidal activity on SOLNI (black nightshade); format: in vivo, Solanum nigrum; conditions: post-emergence spray; lowest tested rate with 80% or greater inhibition; about 14 days after treatment
From the text: as §2, §3, §4, §5, §6

AMARE [8] = assay: Post-emergence herbicidal activity on AMARE (redroot pigweed); format: in vivo, Amaranthus retroflexus; conditions: post-emergence spray; lowest tested rate with 80% or greater inhibition; about 14 days after treatment
From the text: as §2, §3, §4, §5, §6

DATST [9] = assay: Post-emergence herbicidal activity on DATST (jimsonweed); format: in vivo, Datura stramonium; conditions: post-emergence spray; lowest tested rate with 80% or greater inhibition; about 14 days after treatment
From the text: as §2, §3, §4, §5, §6

CHEAL [10] = assay: Post-emergence herbicidal activity on CHEAL (common lambsquarters); format: in vivo, Chenopodium album; conditions: post-emergence spray; lowest tested rate with 80% or greater inhibition; about 14 days after treatment
From the text: as §2, §3, §4, §5, §6

CONAR [11] = assay: Post-emergence herbicidal activity on CONAR (field bindweed); format: in vivo, Convolvulus arvensis; conditions: post-emergence spray; lowest tested rate with 80% or greater inhibition; about 14 days after treatment
From the text: as §2, §3, §4, §5, §6

POROL [12] = assay: Post-emergence herbicidal activity on POROL (common purslane; table head prints PORAL); format: in vivo, Portulaca oleracea; conditions: post-emergence spray; lowest tested rate with 80% or greater inhibition; about 14 days after treatment
From the text: as §2, §3, §4, §5, §6

ECHCG [13] = assay: Post-emergence herbicidal activity on ECHCG (barnyardgrass); format: in vivo, Echinochloa crus-galli; conditions: post-emergence spray; lowest tested rate with 80% or greater inhibition; about 14 days after treatment
From the text: as §2, §3, §4, §5, §6

PANMI [14] = assay: Post-emergence herbicidal activity on PANMI (wild proso millet); format: in vivo, Panicum miliaceum; conditions: post-emergence spray; lowest tested rate with 80% or greater inhibition; about 14 days after treatment
SORHA [15] = assay: Post-emergence herbicidal activity on SORHA (johnsongrass, seedling); format: in vivo, Sorghum halepense; conditions: post-emergence spray; lowest tested rate with 80% or greater inhibition; about 14 days after treatment
From the text: as §2, §3, §4, §5, §6

SETFA [16] = assay: Post-emergence herbicidal activity on SETFA (giant foxtail); format: in vivo, Setaria faberi; conditions: post-emergence spray; lowest tested rate with 80% or greater inhibition; about 14 days after treatment
From the text: as §2, §3, §4, §5, §6

PANDI [17] = assay: Post-emergence herbicidal activity on PANDI (fall panicum); format: in vivo, Panicum dichotomiflorum; conditions: post-emergence spray; lowest tested rate with 80% or greater inhibition; about 14 days after treatment
From the text: as §2, §3, §4, §5, §6

SORVU [18] = assay: Post-emergence herbicidal activity on SORVU (shattercane); format: in vivo, Sorghum vulgare; conditions: post-emergence spray; lowest tested rate with 80% or greater inhibition; about 14 days after treatment
From the text: as §2, §3, §4, §5, §6

BRAPP [19] = assay: Post-emergence herbicidal activity on BRAPP (broadleaf signalgrass); format: in vivo, Brachiaria platyphylla; conditions: post-emergence spray; lowest tested rate with 80% or greater inhibition; about 14 days after treatment
From the text: as §2, §3, §4, §5, §6

DIGSA [20] = assay: Post-emergence herbicidal activity on DIGSA (large crabgrass); format: in vivo, Digitaria sanguinalis; conditions: post-emergence spray; lowest tested rate with 80% or greater inhibition; about 14 days after treatment
AMARE [21] = assay: Pre-emergence herbicidal activity on AMARE (redroot pigweed); format: in vivo, Amaranthus retroflexus; conditions: lowest tested rate giving 80% or greater inhibition, approx. 14 days after planting and treating, greenhouse
Method in brief: as §1

DATST [22] = assay: Pre-emergence herbicidal activity on DATST (jimsonweed); format: in vivo, Datura stramonium; conditions: lowest tested rate giving 80% or greater inhibition, approx. 14 days after planting and treating, greenhouse
Method in brief: as §1

CHEAL [23] = assay: Pre-emergence herbicidal activity on CHEAL (common lambsquarters); format: in vivo, Chenopodium album; conditions: lowest tested rate giving 80% or greater inhibition, approx. 14 days after planting and treating, greenhouse
Method in brief: as §1

CONAR [24] = assay: Pre-emergence herbicidal activity on CONAR (field bindweed); format: in vivo, Convolvulus arvensis; conditions: lowest tested rate giving 80% or greater inhibition, approx. 14 days after planting and treating, greenhouse
Method in brief: as §1

POROL [25] = assay: Pre-emergence herbicidal activity on POROL (common purslane); format: in vivo, Portulaca oleracea; conditions: lowest tested rate giving 80% or greater inhibition, approx. 14 days after planting and treating, greenhouse
Method in brief: as §1

CIRAR = assay: Pre-emergence herbicidal activity on CIRAR (canada thistle, seedling); format: in vivo, Cirsium arvense; conditions: lowest tested rate giving 80% or greater inhibition, approx. 14 days after planting and treating, greenhouse
Method in brief: as §1

ECHCG [26] = assay: Pre-emergence herbicidal activity on ECHCG (barnyardgrass); format: in vivo, Echinochloa crus-galli; conditions: lowest tested rate giving 80% or greater inhibition, approx. 14 days after planting and treating, greenhouse
Method in brief: as §1

PANMI [27] = assay: Pre-emergence herbicidal activity on PANMI (wild proso millet); format: in vivo, Panicum miliaceum; conditions: lowest tested rate giving 80% or greater inhibition, approx. 14 days after planting and treating, greenhouse
Method in brief: as §1

PANDI [28] = assay: Pre-emergence herbicidal activity on PANDI (fall panicum); format: in vivo, Panicum dichotomiflorum; conditions: lowest tested rate giving 80% or greater inhibition, approx. 14 days after planting and treating, greenhouse
Method in brief: as §1

SORVU [29] = assay: Pre-emergence herbicidal activity on SORVU (shattercane); format: in vivo, Sorghum vulgare; conditions: lowest tested rate giving 80% or greater inhibition, approx. 14 days after planting and treating, greenhouse
From the text: as §2
The pre-emergence tests were conducted by the following procedure. Topsoil was sieved to pass through a 1.27 cm screen. Fertilizer was added to the topsoil and the mixture was then sterilized by heating. The topsoil mixture was placed in a pot and compacted to a depth of 1.0 to 1.25 cm from the top of the pot. Seeds of each of several monocotyledonous and dicotyledonous annual plant species were placed on top of the soil. Additional soil was subsequently placed over the seeds to level-fill the pot. A known amount of each test compound dissolved or suspended in an appropriate organic solvent was diluted with a 50:50 mix of acetone and water and applied to the surface of the soil. After treatment the plants were placed in a greenhouse with a 30/21° C. day/night temperature regime where they received 0.64 cm of overhead irrigation. All subsequent watering consisted of a light overhead mist and/or subirrigation as needed for germination and growth.
Approximately 14 days after planting and treating, the plants were observed and herbicidal efficacy recorded as percent inhibition by comparison with untreated plants.
The plant species usually regarded as weeds which were utilized in the tests are identified in the tables below according to the following legend, in which “d” indicates a dicotyledonous species and “m” a monocotyledonous species. All monocotyledonous species included in the tests herein are grasses.

DIGSA [30] = assay: Pre-emergence herbicidal activity on DIGSA (large crabgrass); format: in vivo, Digitaria sanguinalis; conditions: lowest tested rate giving 80% or greater inhibition, approx. 14 days after planting and treating, greenhouse
Method in brief: as §1

## CC(CNC(=O)c1cccc(C(F)(F)F)c1)NC(=O)c1ccccc1SCCCCl (stereo not drawn) [Example 119]
ABUTH [1]
  Pre-emergence activity (GR80) on ABUTH: phyto
SOLNI [2]
  Pre-emergence activity (GR80) on SOLNI: 1000 g/ha
SORHA [3]
  Pre-emergence activity (GR80) on SORHA: phyto
SETFA [4]
  Pre-emergence activity (GR80) on SETFA: phyto
BRAPP [5]
  Pre-emergence activity (GR80) on BRAPP: phyto
ABUTH [6]
  Post-emergence activity (GR80) ABUTH: phyto
SOLNI [7]
  Post-emergence activity (GR80) SOLNI: phyto
AMARE [8]
  Post-emergence activity (GR80) AMARE: phyto
DATST [9]
  Post-emergence activity (GR80) DATST: phyto
CHEAL [10]
  Post-emergence activity (GR80) CHEAL: [empty]
CONAR [11]
  Post-emergence activity (GR80) CONAR: phyto
POROL [12]
  Post-emergence activity (GR80) PORAL: phyto
ECHCG [13]
  Post-emergence activity (GR80) ECHCG: [empty]
PANMI [14]
  Post-emergence activity (GR80) PANMI: [empty]
SORHA [15]
  Post-emergence activity (GR80) SORHA: [empty]
SETFA [16]
  Post-emergence activity (GR80) SETFA: [empty]
PANDI [17]
  Post-emergence activity (GR80) PANDI: [empty]
SORVU [18]
  Post-emergence activity (GR80) SORVU: [empty]
BRAPP [19]
  Post-emergence activity (GR80) BRAPP: [empty]
DIGSA [20]
  Post-emergence activity (GR80) DIGSA: [empty]

## CC(CNC(=O)c1cccc(C(F)(F)F)c1)NC(=O)c1cccc(C(F)(F)F)c1Cl (stereo not drawn) [Example 14]
ABUTH [1]
  Pre-emergence activity (GR80) on ABUTH: 250 g/ha
SOLNI [2]
  Pre-emergence activity (GR80) on SOLNI: 125 g/ha
AMARE [21]
  Pre-emergence activity (GR80) on AMARE: 125 g/ha
DATST [22]
  Pre-emergence activity (GR80) on DATST: 64 g/ha
CHEAL [23]
  Pre-emergence activity (GR80) on CHEAL: 64 g/ha
CONAR [24]
  Pre-emergence activity (GR80) on CONAR: 125 g/ha
POROL [25]
  Pre-emergence activity (GR80) on PORAL: 125 g/ha
CIRAR
  Pre-emergence activity (GR80) on CIRAR: 64 g/ha
ECHCG [26]
  Pre-emergence activity (GR80) on ECHCG: 1000 g/ha
PANMI [27]
  Pre-emergence activity (GR80) on PANMI: 500 g/ha
SORHA [3]
  Pre-emergence activity (GR80) on SORHA: 500 g/ha
SETFA [4]
  Pre-emergence activity (GR80) on SETFA: 250 g/ha
PANDI [28]
  Pre-emergence activity (GR80) on PANDI: 250 g/ha
SORVU [29]
  Pre-emergence activity (GR80) on SORVU: phyto
BRAPP [5]
  Pre-emergence activity (GR80) on BRAPP: 500 g/ha
DIGSA [30]
  Pre-emergence activity (GR80) on DIGSA: 125 g/ha
